The results in this text go back to US11479533B2, “Inhibitors of Rho associated coiled-coil containing protein kinase” (KADMON CORPORATION, LLC, priority 2017, dated 2022).

SMILES strings stand for the structures.

The target of test [1] is recombinant ROCK2 (amino acids 1-552) (Homo sapiens (Human), UniProt O75116). The experiment in a line: Z'-lyte kinase assay, ROCK2. It counts as biochemical. An outline of the steps:
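Inhibition of recombinant human ROCK2 (residues 1-552, sourced from ThermoFisher Scientific) was assessed in vitro with the Z'-lyte kinase kit. Kinase activity with compound was normalized to DMSO control to give percent inhibition. IC50s came from 9-point 2-fold serial dilutions fitted by nonlinear regression in GraphPad Prism.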

Test [2] has as its target recombinant ROCK1 (amino acids 1-535) (Homo sapiens (Human), UniProt Q13464). The experiment in a line: Z'-lyte kinase assay, ROCK1. It counts as biochemical. Here is the method: Determination of compounds ROCK inhibitory activity in vitro (Z'lyte assay): recombinant ROCK1 (amino acids 1-535) and ROCK2 (amino acids 1-552) proteins were purchased from ThermoFisher Scientific. Compounds activities were measured by Z'-lyte kinase kit (ThermoFisher Scientific) and IC50s were calculated.
Compounds activities were measured by Z'-lyte kinase kit (ThermoFisher Scientific). […] IC50s were calculated using the GraphPad Prism software with kinase activities data that were collected from 9 points serial dilution of compounds treatment. The ROCK inhibition in A7R5 cells and NIH3T3 (Acta2-Luc) cells was performed as described above.
The percent inhibition rate was calculated by normalizing the kinase activity value obtained with compound treatment against DMSO control value and then applied to the equation, […]. IC50's were calculated using the nonlinear regression curve fit function of the GraphPad Prism software with kinase activities data measured with 9 points 2-fold serial dilution of compounds treatment.

Test [3] relates to human oligodendrocyte/neuron progenitor cells. The experiment in a line: Chondroitin Sulfate Proteoglycan (CSPG) assay on human oligodendrocyte/neuron progenitors. It counts as cell-based. To be noted: 1 μM and 3 μM, 72 hour. Here is the method:
Chondroitin Sulfate Proteoglycan (CSPG) assay on human oligodendrocyte/neuron progenitors in 96-well plate. […] Cells were seeded on the coated plates at a density of 6,000 cells per well in expansion media. The following day the expansion media was replaced with fresh spontaneous differentiation media containing testing compounds. Cells were imaged and neurite length was analyzed by IncuCyte S3 Live Cell Analysis System every 4 hours.

Test [4] has the same test system. Kind of test: Aβ 1-42 induced cell death assay on human oligodendrocyte/neuron progenitors. The following applies: 3 μM, 10.5 μM Aβ1-42, 24 hour. The class given is cell-based. Here is the method:
Aβ 1-42 induced cell death assay on human oligodendrocyte/neuron progenitors in 96-well plate. Cells were seeded on poly-L-ornithine and laminin coated plates at a density of 8,000 cells per well and maintained in expansion media until Day 3, then media was replaced with fresh spontaneous differentiation media containing testing compounds and IncuCyte Annexin V Red Reagent (1:200 dilution) (Essen BioScience Cat. No. 4641). After the pre-incubation period of 30 minutes at 37° C., 10.5 μM Aβ 1-42 (Bachem Product No. H-8146) was added directly in the pretreatment solution. Neurite length and total Annexin V positive area were analyzed by IncuCyte S3 Live Cell Analysis System every 2 hours.
In addition to promoting neuroregeneration, ROCK inhibitors have been reported to exert neuroprotective effects and prolong neuronal survival. Here we test the neuroprotective effect of ROCK inhibitors against Aβ1-42. Human oligodendrocyte/neuron progenitor cells were pre-incubated with ROCK inhibitors for 30 minutes before exposing to 10.5 μM Aβ1-42. IncuCyte Annexin V Red Reagent was added to culture media to label cell apoptosis. Pictures were taken by IncuCyte S3 and total Annexin V positive area was analyzed by IncuCyte S3 base software. Neurite length was quantified by IncuCyte NeuroTrack Software Module, see FIGS. 3b and 3c.

The test system of test [5] is bleomycin induced lung fibrosis. The experiment in a line: Bleomycin induced lung fibrosis in mice (therapeutic administration). The class given is in vivo, mouse. To be noted: oral once daily Day 7 to Day 20. On the procedure:
Bleomycin induced lung fibrosis in mice (therapeutic administration): Male C57B/L6 mice were housed for acclimation for no less than 7 days. After acclimation period, animals were randomly assigned to treatment groups. On day 0, mice were anesthetized with 5% isoflurane by inhalation for 10-15 mins and then suspended by their front teeth on a wire attached to a fixed animal operating plate. 50 μL of saline or bleomycin solution was administered via intratracheal instillation. Mice in treatment groups were intratracheally instilled with bleomycin hydrochloride (BLM) 2.0 U/kg (mg/kg) in sterile saline. On day 7 following bleomycin administration, half of the animals in vehicle group were sacrificed to establish a baseline for the level of fibrosis at the treatment initiation. Mice in normal control group received saline by p.o. once daily from Day 7 to Day 20. Treatment group mice received the compound dosed orally once daily from Day 7 to Day 20. On Day 20, 2-3 hours posted the last dose, all mice were sacrificed. Lungs were gently lavaged via the tracheal cannula with 0.8 mL of PBS containing 1% BSA and 0.6 mM EDTA. […] The activity of ROCK inhibitors in attenuating pulmonary fibrosis in a therapeutic dosing setting was assessed in a bleomycin-induced model, following intratracheal bleomycin installation to induce lung tissue damage and consequent fibrosis of the lung. […]

Test [6] shares this test system. The experiment in a line: Bleomycin induced lung fibrosis in mice (prophylactic administration). To be noted: oral once daily, 21-day treatment; ≥10 mg/kg. It counts as in vivo, mouse. On the procedure: Bleomycin induced lung fibrosis in mice (Phrophylactic administration): Male C57B/L6 mice were ear tagged and weighed prior to the start of the study. Treatment group animals were treated with the compound on day −1 pre-bleomycin and all subsequent days post-bleomycin administration. On day 0, animals in disease groups received 1.5 U/kg dose of bleomycin via oropharyngeal route. The non-bleomycin control group received sterile saline. Animals were closely monitored daily till the end of the study. On day 21 following bleomycin administration, all animals were euthanized and blood, lung, and bronchoalveolar lavage (BAL) fluid were collected. Blood samples were used for plasma preparation; total leukocytes were counted in BAL fluid; and lungs were fixed in 10% neutral buffered formalin for histopathological analysis. Based on the strong anti-fibrotic cellular activity of ROCK inhibitors of this invention, the ability of such inhibitors to attenuate fibrosis in the in vivo setting was assessed in several mouse models of fibrotic diseases including the bleomycin induced pulmonary fibrosis. […] The improvement in the overall lung fibrosis, α-smooth muscle actin (αSMA) percentage positive area and total leukocytes count in bronchoalveolar lavage fluid was quantitated by applying the Ashcoft score criteria to the histopathology images, IHC quantitation and flowcytometry respectively.

recombinant ROCK1 (amino acids 1-535), sequence (Q13464 1-535): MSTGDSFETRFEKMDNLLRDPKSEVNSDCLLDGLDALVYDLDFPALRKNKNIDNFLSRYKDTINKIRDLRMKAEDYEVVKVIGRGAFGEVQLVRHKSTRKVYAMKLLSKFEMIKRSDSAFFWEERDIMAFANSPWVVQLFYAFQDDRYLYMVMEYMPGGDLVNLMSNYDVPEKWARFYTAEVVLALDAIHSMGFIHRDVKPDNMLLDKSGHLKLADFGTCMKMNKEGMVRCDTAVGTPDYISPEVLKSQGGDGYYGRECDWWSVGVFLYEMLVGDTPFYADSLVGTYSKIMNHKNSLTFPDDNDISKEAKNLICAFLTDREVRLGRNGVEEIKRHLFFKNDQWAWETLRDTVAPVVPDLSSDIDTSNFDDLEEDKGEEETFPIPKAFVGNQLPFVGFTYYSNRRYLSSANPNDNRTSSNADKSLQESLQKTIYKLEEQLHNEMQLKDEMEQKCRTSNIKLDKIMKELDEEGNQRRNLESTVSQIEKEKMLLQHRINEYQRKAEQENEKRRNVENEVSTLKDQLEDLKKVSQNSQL
recombinant ROCK2 (amino acids 1-552), sequence (O75116 1-552): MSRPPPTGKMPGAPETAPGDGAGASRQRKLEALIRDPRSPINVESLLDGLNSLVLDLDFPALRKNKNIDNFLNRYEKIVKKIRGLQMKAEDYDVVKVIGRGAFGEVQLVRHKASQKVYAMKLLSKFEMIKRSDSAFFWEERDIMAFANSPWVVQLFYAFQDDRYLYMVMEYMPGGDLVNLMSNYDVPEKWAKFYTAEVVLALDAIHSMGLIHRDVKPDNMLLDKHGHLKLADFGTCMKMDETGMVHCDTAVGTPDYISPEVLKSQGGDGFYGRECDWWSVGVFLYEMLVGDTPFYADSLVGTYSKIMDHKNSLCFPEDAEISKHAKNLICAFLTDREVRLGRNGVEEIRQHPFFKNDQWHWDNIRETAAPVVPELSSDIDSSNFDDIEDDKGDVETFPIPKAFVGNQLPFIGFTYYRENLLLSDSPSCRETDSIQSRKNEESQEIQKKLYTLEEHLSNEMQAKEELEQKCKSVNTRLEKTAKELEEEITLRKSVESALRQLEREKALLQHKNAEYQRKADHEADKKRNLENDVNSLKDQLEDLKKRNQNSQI

Regarding `CNC(C(=O)Nc1ccc(-c2cn[nH]c2)cc1)c1cccc(OC)c1` (stereo not drawn) [Example 2, N-(4-(1H-pyrazol-4-yl)phenyl)-2-(3-methoxyphenyl)-2-(methylamino)acetamide], the figures for the IC50 in test [1] and in test [2] were 4 nM and 17 nM, respectively. For the same compound, in test [3], the “CSPG mediated neurite outgrowth arrest” value is “significantly counteract”. Besides, the “Aβ1-42 induced cell death (Annexin V area)” value in test [4] is recorded as “significantly protect”. For the same compound, the “collagen amounts in the lungs (Masson's trichrome)” value in test [5] was “significantly lower”. Also, the “Ashcroft fibrotic indices, αSMA percentage positive area and total leukocytes count in bronchoalveolar lavage fluid” value in test [6] is “positive activity”.
